Tests used:
Type in all cases: in vivo
Chilo suppressalis = experiment: Insecticidal activity against Chilo suppressalis (soaking method); conditions: 96 h, 400 μg/mL, 3rd instar larvae, counted 4 days later, read-out: Mortality rate (%) C. suppressalis
From the text: (§1) Preparation of test agent. Dissolve accurately weighed tested compound in DMF to prepare 1% mother liquor, and then dilute it with distilled water containing 0.1% Tween-80 to corresponding concentrations for later use.
Insecticidal activity against Chilo suppressalis ([Huang et al., 2022]). The soaking method was adopted. The Zizania latifolia slices were soaked in a tested solution for 10 s, then taken out, and placed in a plastic Petri dish with filter paper to naturally dry in the shade. […] The result was counted 4 days later, and the no-response insect body when it was lightly touched with a brush was regarded as dead. Each treatment was repeated three times, and DMF without the tested compound was used as a blank control.
(§2) The insecticidal activities of the test compounds against the abovementioned five insects were calculated by the following formula: P1=(K/N)×100, (1) P2=(Pt−P0)/(1−P0)×100, (2) where P1 is the mortality rate; K is the dead insect number; N is the total number of experimental insects; P2 is the corrected mortality rate; Pt is the mortality rate of treatment; P0 is the mortality rate of CK. If the mortality rate of CK is less than 5%, without the required correction, and if the mortality rate of CK is between 5 and 20%, P2 should be calculated according to formula II.

Nilaparvata lugens = experiment: Insecticidal activity against Nilaparvata lugens (Potter spray tower); conditions: 24 h, 3rd instar nymphae, 1 day after treatment, read-out: Mortality rate (%) N. lugens; for mortality at 400 µg/mL: 400 μg/mL
From the text: as §1
Insecticidal activity against Nilaparvata lugens ([Ghareeb et al., 2021]). The seedlings with two leaves and one heart were placed in a Petri dish with a bottom diameter of 3 cm and covered with white sand. After the 3rd instar nymphae of N. lugens were stunned by CO2, about 15 nymphae were received in each dish, and then 2.5 ml of the tested agent was sprayed with Potter spray tower. The mortality of N. lugens was investigated 1 day after the treatment. Each treatment was repeated three times, and DMF without the tested compound was used as a blank control.
as §2

Helicoverpa armigera = experiment: Insecticidal activity against Helicoverpa armigera (soaking method); conditions: Helicoverpa armigera, 48 h; 400 μg/mL; 2nd instar larvae; counted 2 days later; read-out: Mortality rate (%) H. armigera
From the text: as §1
Insecticidal activity against Helicoverpa armigera. The soaking method was adopted ([Yang et al., 2022]). After soaking a proper amount of corn leaves for 10 s, they were placed in a plastic Petri dish with filter paper and dried naturally in the shade. Ten larvae of the 2nd instar H. armigera were attached to each dish and placed in an observation room at 26°C with light (16/8 h). The result was counted 2 days later, and the no-response insect body when it was lightly touched with a brush was regarded as dead. Each treatment was repeated 3 times, and DMF without the tested compound was used as a blank control.
as §2

Aphis craccivora = experiment: Insecticidal activity against Aphis craccivora (Potter spray tower); conditions: 400 μg/mL, counted 24 h later, read-out: Mortality rate (%) A. craccivora
Procedure: as §1
Insecticidal activity against Aphis craccivora ([Liu et al., 2022]). About 30 nymphs of alfalfa aphid were placed on a horsebean leaf dish, and then 2.5 ml of the tested agent was sprayed with Potter spray tower. After treatment, they were cultured in an observation room at 20–22°C. The result was counted 24 h later, and the no-response insect body when it was lightly touched with tweezers was regarded as dead. Each treatment was repeated three times, and DMF without the tested compound was used as a blank control.
as §2

Plutella xylostella = experiment: Insecticidal activity against Plutella xylostella (soaking method); conditions: Plutella xylostella, 48 h, 2nd instar larvae, counted 2 days later, read-out: Mortality rate (%) P. xylostella; for mortality at 25 µg/mL: 25 μg/mL; for mortality at 100 µg/mL: 100 μg/mL; for mortality at 400 µg/mL: 400 μg/mL
From the text: as §1
Insecticidal activity against Plutella xylostella ([Yang et al., 2021]). The soaking method was adopted. After soaking a proper amount of radish leaves for 10 s, it was placed in a plastic Petri dish with filter paper and dried naturally in the shade. Each dish was inoculated with 10 2nd instar P. xylostella larvae and placed in an observation room at 22°C with light (16/8 h). The result was counted 2 days later, and the no-response insect body when it was lightly touched with a brush was regarded as dead. Each treatment was repeated three times, and DMF without the tested compound was used as a blank control.
as §2

| SMILES | mortality at 400 µg/mL (Chilo suppressalis) [%] | mortality at 400 µg/mL (Nilaparvata lugens) [%] | mortality at 400 µg/mL (Helicoverpa armigera) [%] | mortality at 400 µg/mL (Aphis craccivora) [%] | mortality at 25 µg/mL (Plutella xylostella) [%] | mortality at 100 µg/mL (Plutella xylostella) [%] | mortality at 400 µg/mL (Plutella xylostella) [%] | mortality at 100 µg/mL (Nilaparvata lugens; 100 μg/mL) [%] |
| --- | --- | --- | --- | --- | --- | --- | --- | --- |
| COCC(=O)/N=c1\ccccn1Cc1cnn(-c2cccc(Cl)c2)c1C(F)F [Compound B6, (E)-N-(1-((1-(3-chlorophenyl)-5-(difluoromethyl)-1H-pyrazol-4-yl)methyl)pyridin-2(1H)-ylidene)-2-methoxyacetamide] | 0 | 0 | 0 | 0 | 0 | 83.3 | 100 |  |
| COCC(=O)/N=c1\ccccn1Cc1cnn(-c2cccc(F)c2)c1C(F)F [Compound B7, (E)-N-(1-((5-(difluoromethyl)-1-(3-fluorophenyl)-1H-pyrazol-4-yl)methyl)pyridin-2(1H)-ylidene)-2-methoxyacetamide] | 0 | 0 | 0 | 0 |  |  | 66.7 |  |
| COCC(=O)/N=c1\ccccn1Cc1cnn(-c2ccc(F)cc2)c1C(F)F [Compound B8, (E)-N-(1-((5-(difluoromethyl)-1-(4-fluorophenyl)-1H-pyrazol-4-yl)methyl)pyridin-2(1H)-ylidene)-2-methoxyacetamide] | 0 | 0 | 0 | 0 |  |  | 56.7 |  |
| O=C(/N=c1\ccccn1Cc1cnn(-c2ccccc2)c1C(F)(F)F)C(F)(F)C(F)(F)F [Compound C1, (E)-2,2,3,3,3-pentafluoro-N-(1-((1-phenyl-5-(trifluoromethyl)-1H-pyrazol-4-yl)methyl)pyridin-2(1H)-ylidene)propanamide] | 0 | 0 | 0 | 0 |  |  | 0 |  |
| O=C(/N=c1\ccccn1Cc1cnn(-c2ccccc2Cl)c1C(F)(F)F)C(F)(F)C(F)(F)F [Compound C2, (E)-N-(1-((1-(2-chlorophenyl)-5-(trifluoromethyl)-1H-pyrazol-4-yl)methyl)pyridin-2(1H)-ylidene)-2,2,3,3,3-pentafluoropropanamide] | 0 | 0 | 0 | 0 |  |  | 0 |  |
| O=C(/N=c1\ccccn1Cc1cnn(-c2cccc(F)c2)c1C(F)(F)F)C(F)(F)C(F)(F)F [Compound C3, (E)-2,2,3,3,3-pentafluoro-N-(1-((1-(3-fluorophenyl)-5-(trifluoromethyl)-1H-pyrazol-4-yl)methyl)pyridin-2(1H)-ylidene)propanamide] | 0 | 0 | 0 | 0 |  |  | 76.7 |  |
| O=C(/N=c1\ccccn1Cc1cnn(-c2ccc(Cl)cc2)c1C(F)(F)F)C(F)(F)C(F)(F)F [Compound C4, (E)-N-(1-((1-(4-chlorophenyl)-5-(trifluoromethyl)-1H-pyrazol-4-yl)methyl)pyridin-2(1H)-ylidene)-2,2,3,3,3-pentafluoropropanamide] | 0 | 0 | 0 | 0 |  |  | 73.3 |  |
| O=C(/N=c1\ccccn1Cc1cnn(-c2cccc(Cl)c2)c1C(F)F)C(F)(F)C(F)(F)F [Compound C6, (E)-N-(1-((1-(3-chlorophenyl)-5-(difluoromethyl)-1H-pyrazol-4-yl)methyl)pyridin-2(1H)-ylidene)-2,2,3,3,3-pentafluoropropanamide] | 0 | 0 | 0 | 0 |  |  | 60 |  |
| O=C(/N=c1\ccccn1Cc1cnn(-c2cccc(F)c2)c1C(F)F)C(F)(F)C(F)(F)F [Compound C7, (E)-N-(1-((5-(difluoromethyl)-1-(3-fluorophenyl)-1H-pyrazol-4-yl)methyl)pyridin-2(1H)-ylidene)-2,2,3,3,3-pentafluoropropanamide] | 40 | 0 | 0 | 0 |  |  | 66.7 |  |
| Cn1cc(C(=O)/N=c2\ccccn2Cc2cnn(-c3ccccc3)c2C(F)(F)F)c(C(F)F)n1 [Compound D1, (E)-3-(difluoromethyl)-1-methyl-N-(1-((1-phenyl-5-(trifluoromethyl)-1H-pyrazol-4-yl)methyl)pyridin-2(1H)-ylidene)-1H-pyrazole-4-carboxamide] | 0 | 0 | 0 | 0 |  |  | 46.7 |  |
| Cn1cc(C(=O)/N=c2\ccccn2Cc2cnn(-c3ccccc3Cl)c2C(F)(F)F)c(C(F)F)n1 [Compound D2, (E)-N-(1-((1-(2-chlorophenyl)-5-(trifluoromethyl)-1H-pyrazol-4-yl)methyl)pyridin-2(1H)-ylidene)-3-(difluoromethyl)-1-methyl-1H-pyrazole-4-carboxamide] | 0 | 0 | 0 | 0 |  |  | 43.3 |  |
| Cn1cc(C(=O)/N=c2\ccccn2Cc2cnn(-c3cccc(F)c3)c2C(F)(F)F)c(C(F)F)n1 [Compound D3, (E)-3-(difluoromethyl)-N-(1-((1-(3-fluorophenyl)-5-(trifluoromethyl)-1H-pyrazol-4-yl)methyl)pyridin-2(1H)-ylidene)-1-methyl-1H-pyrazole-4-carboxamide] | 0 | 100 | 0 | 0 |  |  | 63.3 | 0 |
| Cn1cc(C(=O)/N=c2\ccccn2Cc2cnn(-c3ccc(Cl)cc3)c2C(F)(F)F)c(C(F)F)n1 [Compound D4, (E)-N-(1-((1-(4-chlorophenyl)-5-(trifluoromethyl)-1H-pyrazol-4-yl)methyl)pyridin-2(1H)-ylidene)-3-(difluoromethyl)-1-methyl-1H-pyrazole-4-carboxamide] | 0 | 0 | 0 | 0 | 6.7 | 60 | 100 |  |
| Cn1cc(C(=O)/N=c2\ccccn2Cc2cnn(-c3ccc(C(F)(F)F)cc3)c2C(F)(F)F)c(C(F)F)n1 [Compound D5, (E)-3-(difluoromethyl)-1-methyl-N-(1-((5-(trifluoromethyl)-1-(4-(trifluoromethyl)phenyl)-1H-pyrazol-4-yl)methyl)pyridin-2(1H)-ylidene)-1H-pyrazole-4-carboxamide] | 0 | 0 | 0 | 0 |  |  | 63.3 |  |

Reference: publication PMC9574050, “Design, synthesis, and insecticidal activity of a novel series of flupyrimin analogs bearing 1-aryl-1H-pyrazol-4-yl subunits” (Frontiers in Chemistry, 2022)
